Data on twelve compounds can be found in US4542219A, “Certain heterocyclic ammonio phosphate derivatives” (Takeda Chemical Industries, Ltd., priority 1981, dated 1985).

In data set [1] the test system is human promyelocytic leukemia cell HL-60. Nature of the data set: Cell proliferation inhibition and differentiation induction, human promyelocytic leukemia cell HL-60 (Test Example 1): proliferation. In kind it is cell-based. The note with it: HL-60, 120 h, 5 days' culture, read-out: Cell proliferation inhibitory activity GD50. How it is done:
The cell proliferation inhibitory activity (GD50) and differentiation inducing activity of the compound of this invention against human promyelocytic leukemia cell HL-60 are shown in Table 1. The assays were performed by the method described for example in R. Gallo et al, Blood. vol. 54, No. 3, 713 (1979).

The test system of data set [2] is Tetrahymena pyriformis W. Nature of the data set: Antiprotozoal activity, broth dilution method. The note with it: 28° C. for 44 to 48 hours, pH 7.0. In kind it is cell-based. As for the experimental part:
The antiprotozoal activity values given in Table 2 were assayed using Tetrahymena pyriformis W as the test organism and an assay medium composed of 20 g tryptose peptone (Difco), 1 g yeast extract, 2 g glucose, 1000 ml distilled water and 10 ml 1 M phosphate buffer, pH 7.0. Thus, the strain was incubated at 28° C. for 44 to 48 hours and the minimal inhibitory concentration (MIC) of the compound (I) was determined by the broth dilution method.

In data set [3] the test system is Cryptococcus neoformans. Nature of the data set: Antimycotic activity, paper disk zone of inhibition. In kind it is cell-based. The note with it: 48 h, 3 mg/ml, 8 mm paper disk, 37° C. for 2 days, read-out: Diameter of inhibition zone. How it is done: The antimycotic activity values presented in Table 2 were assayed using Cryptococcus neoformans as the test organism. Thus, a paper disk (8 mm dia.) was dipped into an aqueous solution of the test compound (3 mg/ml), dried in the air and set in position on an agar medium. The medium was incubated at 37° C. for 2 days, at the end of which time the diameter of the zone of inhibition was measured. When the diameter of the zone was not larger than 8 mm, 8-10 mm, 10-20 mm and larger than 20 mm, the activity was judged as -, ±, + and ++, respectively.

Data set [4] has as its system Pyricularia oryzae. Nature of the data set: microbe, parasite or virus in culture. In kind it is cell-based.
The test system of data set [5] is Helminthosporium oryzae. Nature of the data set: Antifungal activity, serial dilution method. The following applies: Bipolaris oryzae. Format: cell-based.
Data set [6] relates to Botrytis cinerea. Briefly: Antifungal activity, serial dilution method. In kind it is cell-based.
Data set [7] concerns Helminthosporium sigmordeum. Nature of the data set: Antifungal activity, serial dilution method. In kind it is cell-based.
Data set [8] has as its system Sclerotinia sclerotiorum. Nature of the data set: Antifungal activity, serial dilution method. In kind it is cell-based. The following applies: kidney bean stem rot, 1% glucose-bouillon agar.
Data set [9] concerns Colletotrichum lagenarium. Nature of the data set: Antifungal activity, serial dilution method. The following applies: Colletotrichum orbiculare. Format: cell-based.
For data set [10], the system named is Aspergillus niger. Nature of the data set: Antifungal activity, serial dilution method. In kind it is cell-based.
The subject of data set [11] is Penicillium niger. Nature of the data set: Antifungal activity, serial dilution method. In kind it is cell-based.
Data set [12] deals with Saccharomyces cerevisiae. Briefly: Antifungal activity, serial dilution method. In kind it is cell-based.
The nature of data set [13]: Hemolysis test (method of Gottfried et al). In kind it is cell-based. The note with it: erythrocytes; in the presence of 5% human albumin; read-out: 50% hemolytic concentration. An excerpt: The compound (I) is of relatively low toxicity and has generally low hemolytic activity. […] In these compounds (I), the influence of the length of chain R^1 varies with the other moiety of the molecule.

The test system of data set [14] is sarcoma 180. Nature of the data set: Antitumor activity against sarcoma 180. The note with it: 500 μg/mouse. Format: in vivo, ICR mice.
Data set [15] has as its system MM46 mammarian carcinoma. Nature of the data set: Antitumor activity against MM46 mammarian carcinoma. The note with it: 250 μg/mouse/day, once daily, eight days in total; control average 14.2 days. Format: in vivo, C3 H/He mice. How it is done:
MM46 mammarian carcinoma cells (1×10^5) was transplanted intraperitoneally to each of five C3 H/He mice group. From five days to two days before the transplantation and from two day to five days after the transplantation, eight days in total. 250 μg/mouse/day of the test compound was administered to the test group, once daily. Survival period of three of the test group was not less than 60 days, and that of the remaining two was 23 days in average. On the other hand, the average survival period of mice of the control group was 14.2 days.

Setting [16] is: gray mold, 1% glucose-bouillon agar, read-out: MIC.
[17] abbreviates: black mold, 1% glucose-bouillon agar, read-out: MIC.
Where [18] appears, read: blue mold, 1% glucose-bouillon agar, read-out: MIC.
[19] abbreviates: rice stem rot, 1% glucose-bouillon agar, read-out: MIC.
The mark [20] stands for this setting: cucumber anthracnose, 1% glucose-bouillon agar, read-out: MIC.
[21] abbreviates: brewer's yeast, 1% glucose-bouillon agar, read-out: MIC.

Structures are written as SMILES. Where two headings read alike, the source gives them in different places.

As for `CCCCCCCCCCCCCCOCCOP(=O)([O-])OCC[N+](C)(C)C` [Production Example 1, 2-Tetradecyloxyethyl 2-trimethylammonioethyl phosphate], the IC50 in [1] came to 3.8 µg/mL. Moreover, the MIC in [2] turned out to be 0.4 µg/mL; in [4], 3.12 µg/mL; in data set [5] it was 12.5 µg/mL; in [6] it was 12.5 µg/mL; in data set [7] it was 3.12 µg/mL; in data set [8], 50 µg/mL. Besides, the MIC in [9] is 3.12 µg/mL; in data set [10] it was 12.5 µg/mL; in [11], 12.5 µg/mL; in [12], under 3.12 µg/mL. Besides, the zone of inhibition at 3000 µg/mL in [3] is over 20 mm.

On to `CCCCCCCCCCCCCOCCOP(=O)([O-])OCC[N+](C)(C)C` [Production Example 2, 2-Tridecyloxyethyl 2-trimethylammonioethyl phosphate], for which the MIC in [2] turned out to be 0.4 µg/mL; in [4] it was 6.25 µg/mL; in data set [5], 6.25 µg/mL; in [6] (setting [16]), 12.5 µg/mL; in [7] it was 6.25 µg/mL; in data set [8], 12.5 µg/mL. For the same compound, the MIC in data set [9] is 3.12 µg/mL; in [10] (setting [17]), 12.5 µg/mL; in [11], 25 µg/mL; in [12], 6.25 µg/mL. Further, the zone of inhibition at 3000 µg/mL in data set [3] is over 20 mm. For the same compound, in [13], the HC50 was about 80 µg/mL.

With `CCCCCCCC/C=C\CCCCCCCCOCCOP(=O)([O-])OCC[N+](C)(C)C` [Production Example 3, 2-Oleyloxyethyl 2-trimethylammonioethyl phosphate], the MIC stood at 0.4 µg/mL in data set [2]; 1.56 µg/mL in [4]; 6.25 µg/mL in data set [5]; 3.12 µg/mL in data set [6] (setting [16]); 6.25 µg/mL in data set [7]; 100 µg/mL in [8]. Besides, the MIC in data set [9] was determined as 6.25 µg/mL; in data set [10] (setting [17]), 25 µg/mL; in data set [11] (setting [18]), 50 µg/mL; in data set [12] it was 12.5 µg/mL. Further, the zone of inhibition at 3000 µg/mL in [3] was over 20 mm.

Turning to `CCCCCCCCCCCCOCCOP(=O)([O-])OCC[N+](C)(C)C` [Production Example 4, 2-Dodecyloxyethyl 2-trimethylammonioethyl phosphate], the MIC was 0.4 µg/mL in [2]; 12.5 µg/mL in [4]; 12.5 µg/mL in [5]; 25 µg/mL in [6] (setting [16]); 25 µg/mL in data set [7] (setting [19]); 100 µg/mL in data set [8]. For the same compound, the MIC in [9] (setting [20]) was 6.25 µg/mL; in data set [10] (setting [17]), 25 µg/mL; in [11] (setting [18]), 25 µg/mL; in data set [12] (setting [21]), 25 µg/mL. The zone of inhibition at 3000 µg/mL in data set [3] is 10 to 20 mm.

For `CCCCCCCCCCCCCCOCCOP(=O)(O)OCCN` [Production Example 5, 2-Tetradecyloxyethyl 2-aminoethyl phosphate], the MIC in data set [2] is 4 µg/mL; in [4] it was 25 µg/mL; in data set [5], over 100 µg/mL; in data set [6], 50 µg/mL; in data set [7] (setting [19]) it was over 100 µg/mL; in data set [8] it was 100 µg/mL. The MIC in [9] (setting [20]) came to 25 µg/mL; in data set [10] (setting [17]), 25 µg/mL; in data set [11] (setting [18]) it was 50 µg/mL; in [12] (setting [21]), 25 µg/mL. Besides, the zone of inhibition at 3000 µg/mL in data set [3] lay within 8 to 10 mm.

With `CCCCCCCCCCCCCCCCCCOCCOP(=O)(O)OCCN` [Production Example 6, 2-Octadecyloxyethyl 2-aminoethyl phosphate], the IC50 in data set [1] came out at 3 µg/mL. This compound also yielded an MIC in data set [2] of over 4 µg/mL. Further, the zone of inhibition at 3000 µg/mL in data set [3] lay in the range of 8 to 10 mm.

On to `CCCCCCCCCCCCCCCOCCOP(=O)([O-])OCC[N+](C)(C)C` [Production Example 7, 2-Pentadecyloxyethyl 2-trimethylammonioethyl phosphate], for which the IC50 in data set [1] came to 1.2 µg/mL. In data set [2], this compound displayed an MIC of at most 1 µg/mL. Besides, in data set [3], the zone of inhibition at 3000 µg/mL was in the range of 10 to 20 mm.

Take `CCCCCCCCCCCCCCCOCCOP(=O)([O-])OCC[n+]1ccccc1` [Production Example 8, 2-Pentadecyloxyethyl 2-pyridinioethyl phosphate]: the IC50 in [1] is 3.4 µg/mL. In data set [2], this compound registered an MIC of 4 µg/mL. Also, the zone of inhibition at 3000 µg/mL in data set [3] lay within 10 to 20 mm.

Turning to `CCCCCCCCCCCCCCOCCOP(=O)([O-])OCC[n+]1ccccc1` [Production Example 9, 2-Tetradecyloxyethyl 2-pyridinioethyl phosphate], the IC50 in data set [1] is 4.1 µg/mL. The same compound registered an MIC in data set [2] of 4 µg/mL. For the same compound, the zone of inhibition at 3000 µg/mL in data set [3] is over 20 mm.

On to `CCCCCCCCCCCCCCCCCCOCCOP(=O)([O-])OCC[n+]1ccccc1` [Production Example 10, 2-Octadecyloxyethyl 2-pyridinioethyl phosphate], for which, in [1], the IC50 turned out to be 1.5 µg/mL. The MIC in [2] was determined as 4 µg/mL. Moreover, the “survival rate of the test group against the control group T/C” value in data set [14] turned out to be 310%. The compound also yielded an Average survival period in data set [14] (four days before ip transplantation of 1×10^5 cells, control 9.6 days) of 29.8 days. For the same compound, in [15], the “Average survival period of the remaining two of the test group (five mice)” value stood at 23 days and the “Survival period of three of the test group (five mice)” value is “not less than 60 days”.

On to `CCCCCCCCCCCCCCOCCOP(=O)([O-])OCC[N+](C)(C)CCCC(=O)OC` [Production Example 11, 2-Tetradecyloxyethyl 2-[N,N-dimethyl-N-(3-methoxycarbonylpropyl)]ammonioethyl phosphate], for which the IC50 in data set [1] was determined as 2.5 µg/mL. Further, the MIC in data set [2] came out at 4 µg/mL.

Consider `CCCCCCCCCCCCCCOCCOP(=O)([O-])OCC[N+](C)(C)CCCC(=O)O` [Production Example 12, 2-Tetradecyloxyethyl 2-[N-(3-carboxypropyl)-N,N-dimethyl]ammonioethyl phosphate], for which, in [1], the IC50 turned out to be 1.5 µg/mL. Besides, the MIC in [2] turned out to be 0.4 µg/mL.
